Publication PMC10035947, “Development of novel anilinoquinazoline-based carboxylic acids as non-classical carbonic anhydrase IX and XII inhibitors” (Journal of Enzyme Inhibition and Medicinal Chemistry, 2023)
Like-named read-outs stand apart in the source and are kept apart here.

Tests used:
RPMI-8226 = assay: NCI SRB assay; type: cell-based, human; conditions: RPMI-8226, 5-dose
SF-295 = assay: NCI SRB assay; type: cell-based, human
NCI/ADR-RES = assay: NCI SRB assay; type: cell-based, human; conditions: for CC50: read-out: LC50 (the source's name)
HS 578 T = assay: NCI SRB assay; type: cell-based, human; conditions: for CC50: Hs-578T, read-out: LC50 (the source's name)
MALME-3M = assay: NCI SRB assay; type: cell-based, human; conditions: for CC50: read-out: LC50 (the source's name)
HT29 = assay: NCI SRB assay; type: cell-based, human
OVCAR-8 = assay: NCI SRB assay; type: cell-based, human; conditions: for CC50: read-out: LC50 (the source's name)
[1] = system: 59 human cancer cell lines representing nine tumour subpanels; assay: NCI SRB assay, panel and subpanel summaries; conditions: for GI50: Homo sapiens; for Selectivity index: full panel MG-MID / subpanel MG-MID
MDA-MB-435 = assay: NCI SRB assay; type: cell-based; conditions: for CC50: read-out: LC50 (the source's name)
HOP-92 = assay: NCI SRB assay; type: cell-based, human; conditions: for CC50: read-out: LC50 (the source's name)
PC-3 = assay: NCI SRB assay; type: cell-based, human; conditions: for CC50: read-out: LC50 (the source's name)
NCI-H226 = assay: NCI SRB assay; type: cell-based, human
[2] = Homo sapiens, HT-29, HT29, 5-dose
[3] = Homo sapiens, HOP-92, HOP-92, 5-dose

## Cc1ccc(-c2nc(Nc3ccccc3C(=O)O)c3ccccc3n2)cc1 [6b, 2-((2-(p-Tolyl)quinazolin-4-yl)amino)benzoic acid]
RPMI-8226
  TGI: <100 µM
RPMI-8226; listed as D - 835857
  TGI: > 1.00E-4 Molar
RPMI-8226; read-out: LC50 (the source's name)
  CC50: < 100 µM
SF-295; Homo sapiens, SF-295, 5-dose
  GI50: 7.04 µM
SF-295; Homo sapiens, SF-295, 5-dose, read-out: LC50 (the source's name)
  CC50: 86 µM
SF-295; SF-295, 10 μM
  GI%: 94%
SF-295; SF-295, 1.00E-5 Molar
  Growth Percent: 5.81%
SF-295; SF-295, 5-dose
  TGI: 27.0 µM
SF-295; SF-295, 5-dose, listed as D - 835857
  TGI: 2.70E-5 Molar
NCI/ADR-RES; 10 μM
  GI%: 95%
NCI/ADR-RES; 1.00E-5 Molar
  Growth Percent: 5.16%
NCI/ADR-RES; 5-dose
  TGI: 98.5 µM
  CC50: < 100 µM
NCI/ADR-RES; 5-dose, listed as D - 835857
  TGI: 9.85E-5 Molar
NCI/ADR-RES; Homo sapiens, 5-dose
  GI50: 16.8 µM
  CC50: > 100 µM
HS 578 T; HS 578 T, 10 μM
  GI%: 109%
HS 578 T; HS 578T, 1.00E-5 Molar
  Growth Percent: -9.53%
HS 578 T; HS 578 T, 5-dose
  TGI: 67.0 µM
HS 578 T; HS 578T, 5-dose
  TGI: 6.70E-5 Molar
HS 578 T; Homo sapiens, HS 578 T, 5-dose
  CC50: < 100 µM
  GI50: 10.2 µM
HS 578 T; Homo sapiens, HS 578T, 5-dose
  CC50: > 100 µM
MALME-3M; 10 μM
  GI%: 80%
MALME-3M; 1.00E-5 Molar
  Growth Percent: 19.56%
MALME-3M; 5-dose
  TGI: 64.5 µM
  CC50: < 100 µM
MALME-3M; 5-dose, listed as D - 835857
  TGI: 6.45E-5 Molar
MALME-3M; Homo sapiens, 5-dose
  GI50: 15.6 µM
MALME-3M; Homo sapiens, Malme-3M, 5-dose
  CC50: > 100 µM
HT29; HT29, 10 μM
  GI%: 82%
HT29; HT29, 1.00E-5 Molar
  Growth Percent: 17.79%
HT29; HT29, 5-dose
  LC50 (50% lethal concentration): < 100 µM
  TGI: <100 µM
HT29; HT29, 5-dose, listed as D - 835857
  TGI: > 1.00E-4 Molar
HT29; [2]
  GI50: 17.9 µM
  LC50 (50% lethal concentration): > 100 µM
OVCAR-8; Homo sapiens, OVCAR-8, OVCAR-8, 5-dose
  CC50: > 100 µM
OVCAR-8; Homo sapiens, OVCAR-8, 5-dose
  GI50: 18.2 µM
OVCAR-8; OVCAR-8, 10 μM
  GI%: 69%
OVCAR-8; OVCAR-8, 1.00E-5 Molar
  Growth Percent: 30.51%
OVCAR-8; OVCAR-8, 5-dose
  TGI: <100 µM
  CC50: < 100 µM
OVCAR-8; OVCAR-8, 5-dose, listed as D - 835857
  TGI: > 1.00E-4 Molar
[1]; 10 μM, all cell lines
  Mean GI %: 84%
[1]; 1.00E-5 Molar, all cell lines
  Mean Growth Percent: 15.81%
[1]; read-out: Full panel MG-MID (GI50), full panel
  GI50: 12 µM
[1]; read-out: MG-MID (median GI50), Breast cancer subpanel
  GI50: 11 µM
[1]; read-out: MG-MID (median GI50), CNS cancer subpanel
  GI50: 8.04 µM
[1]; read-out: MG-MID (median GI50), Colon cancer subpanel
  GI50: 13.7 µM
[1]; read-out: MG-MID (median GI50), Leukaemia subpanel
  GI50: 8.68 µM
[1]; read-out: MG-MID (median GI50), Melanoma subpanel
  GI50: 11.7 µM
[1]; read-out: MG-MID (median GI50), Non-small cell lung cancer subpanel
  GI50: 9.24 µM
[1]; read-out: MG-MID (median GI50), Ovarian cancer subpanel
  GI50: 15.7 µM
[1]; read-out: MG-MID (median GI50), Prostate cancer subpanel
  GI50: 15.2 µM
[1]; read-out: MG-MID (median GI50), Renal cancer subpanel
  GI50: 14.7 µM
[1]; Breast cancer
  Selectivity index: 1.09
[1]; CNS cancer
  Selectivity index: 1.49
[1]; Colon cancer
  Selectivity index: 0.87
[1]; Leukaemia
  Selectivity index: 1.38
[1]; Melanoma
  Selectivity index: 1.02
[1]; Non-small cell lung cancer
  Selectivity index: 1.29
[1]; Ovarian cancer
  Selectivity index: 0.76
[1]; Prostate cancer
  Selectivity index: 0.78
[1]; Renal cancer
  Selectivity index: 0.81
MDA-MB-435; Homo sapiens, MDA-MB-435
  GI50: 13.9 µM
MDA-MB-435; Homo sapiens, MDA-MB-435, MDA-MB-435, 5-dose
  CC50: > 100 µM
MDA-MB-435; MDA-MB-435, 10 μM
  GI%: 77%
MDA-MB-435; MDA-MB-435, 1.00E-5 Molar
  Growth Percent: 23.38%
MDA-MB-435; MDA-MB-435, 5-dose
  TGI: 87.2 µM
  CC50: < 100 µM
MDA-MB-435; MDA-MB-435, 5-dose, listed as D - 835857
  TGI: 8.72E-5 Molar
HOP-92; HOP-92, 10 μM
  GI%: 120%
HOP-92; HOP-92, 1.00E-5 Molar
  Growth Percent: -19.52%
HOP-92; HOP-92, 5-dose
  GI50: 2.9 µM
  TGI: 29.3 µM
  CC50: < 100 µM
HOP-92; HOP-92, 5-dose, listed as D - 835857
  TGI: 2.93E-5 Molar
HOP-92; [3]
  GI50: 2.85 µM
  CC50: > 100 µM
PC-3; Homo sapiens, PC-3, PC-3, 5-dose
  CC50: > 100 µM
PC-3; Homo sapiens, PC-3, 5-dose
  GI50: 12.7 µM
PC-3; PC-3, 10 μM
  GI%: 84%
PC-3; PC-3, 1.00E-5 Molar
  Growth Percent: 15.75%
PC-3; PC-3, 5-dose
  TGI: <100 µM
  CC50: < 100 µM
PC-3; PC-3, 5-dose, listed as D - 835857
  TGI: > 1.00E-4 Molar
NCI-H226; Homo sapiens, NCI-H226, NCI-H226, 5-dose
  LC50: > 100 µM
NCI-H226; Homo sapiens, NCI-H226, 5-dose
  GI50: 10.2 µM
NCI-H226; NCI-H226, 10 μM
  GI%: 85%
NCI-H226; NCI-H226, 1.00E-5 Molar
  Growth Percent: 15.34%
NCI-H226; NCI-H226, 5-dose
  LC50: < 100 µM
  TGI: 54.2 µM
NCI-H226; NCI-H226, 5-dose, listed as D - 835857
  TGI: 5.42E-5 Molar
